Results taken from EP1622888B1, “BENZO-, NAPHTHO- AND PHENANTHROCHROMENES SUBSTITUTED WITH AN ARYLAMINE GROUP WITH PHOTOCHROMIC PROPERTIES” (Corning Incorporated, priority 2003, dated 2004).

Experiment: Photochromic properties: UV-visible absorption of THF solutions before and after exposure to a UV source at 365 nm
Type: physicochemical
Settings: 5 mg in 50 ml of THF, optical path of 1 cm, after exposure to a UV source at 365 nm
Protocol: The photochromic properties of said compounds (1) to (6) and (C1) to (C5) were evaluated.
Said compounds were dissolved, at the rate of 5 mg in 50 ml of THF, and the UV-visible absorptions (optical path of 1 cm) is then measured before and after exposure to a UV source at 365 nm. The observation of the tints and the intensities developed is done by placing the solutions in the sun or before a solar simulator.

Compound | λMAX VIS: λ of the band of the lowest energy in the field of the visible spectrum of the compound after exposure | λVIS1: λ of the band of highest energy in the field of the visible spectrum of the compound after exposure
COc1cc2c3c(c4c(c2cc1OC)CCc1ccccc1-4)OC(c1ccccc1)(c1ccc(N(C)C)cc1)C=C3 (centres unmarked) [(C1), reference compound] | 507 nm | 
COc1ccc(C2(c3ccc(N(C)C)c(C)c3)C=Cc3c4c(c5cc6c(cc5c3O2)OCC6)-c2ccccc2CC4)cc1 (centres unmarked) [(5)] | 563 nm | 444 nm
COc1ccc2c3c(c4c(c2c1)OC(c1ccccc1)(c1ccc(N(C)C)c(-c2ccccc2)c1)C=C4)CCc1ccccc1-3 (centres unmarked) [(4)] | 562 nm | 469 nm
COc1ccc(C2(c3ccc(N(C)C)c(Br)c3)C=Cc3c4c(c5cc6c(cc5c3O2)OCC6)-c2ccccc2CC4)cc1 (centres unmarked) [(6)] | 561 nm | 443 nm
COc1cc2c3c(c4c(c2cc1OC)CCc1ccccc1-4)OC(c1ccccc1)(c1ccc(N(C)C)c(C)c1)C=C3 (centres unmarked) [(1)] | 452 nm | 
COc1cc2c3c(c4c(c2cc1OC)CCc1ccccc1-4)OC(c1ccccc1)(c1ccc(N(C)C)c(-c2ccccc2)c1)C=C3 (centres unmarked) [(2)] | 465 nm | 
COc1ccc2c3c(c4c(c2c1)OC(c1ccccc1)(c1ccc(N(C)C)c(C)c1)C=C4)CCc1ccccc1-3 (centres unmarked) [(3)] | 556 nm | 435 nm

Results, then the compound that gave them:

λMAX VIS: λ of the band of the lowest energy in the field of the visible spectrum of the compound after exposure | λVIS1: λ of the band of highest energy in the field of the visible spectrum of the compound after exposure | Compound
548 nm | 429 nm | COc1ccc(C2(c3ccccc3)C=Cc3c4c(c5ccc(OC)cc5c3O2)-c2ccccc2CC4)cc1 (centres unmarked) [(C4), reference compound]
441 nm |  | COc1ccc(C2(c3ccccc3)C=Cc3c(c4c(c5cc(OC)c(OC)cc35)CCc3ccccc3-4)O2)cc1 (centres unmarked) [(C2), reference compound]
584 nm | 482 nm | COc1ccc2c3c(c4c(c2c1)OC(c1ccccc1)(c1ccc(N(C)C)cc1)C=C4)CCc1ccccc1-3 (centres unmarked) [(C3), reference compound]
446 nm |  | COc1cc2c3c(c4c(c2cc1OC)CCc1ccccc1-4)OC(c1ccccc1)(c1ccc(NC(C)=O)cc1)C=C3 (centres unmarked) [(C5), reference compound]
